Measurements as given in PMC8385029 (Scientific Reports, 2021).

Assays:
[1] = biological target: T1, SyAcnB (Synechocystis sp. PCC 6803 aconitase B) (Synechocystis sp. PCC 6803, UniProt P74582); assay: cis-aconitate formation, A240; format: biochemical; conditions: read-out: % residual activity at 5 mM
T1 construct: gene acnB; full-length, synthetic gene in pGEX6P-1 (BamHI-XhoI), GST tag (elution with glutathione, no cleavage described), E. coli DH5alpha
T1 sequence (P74582 1-868): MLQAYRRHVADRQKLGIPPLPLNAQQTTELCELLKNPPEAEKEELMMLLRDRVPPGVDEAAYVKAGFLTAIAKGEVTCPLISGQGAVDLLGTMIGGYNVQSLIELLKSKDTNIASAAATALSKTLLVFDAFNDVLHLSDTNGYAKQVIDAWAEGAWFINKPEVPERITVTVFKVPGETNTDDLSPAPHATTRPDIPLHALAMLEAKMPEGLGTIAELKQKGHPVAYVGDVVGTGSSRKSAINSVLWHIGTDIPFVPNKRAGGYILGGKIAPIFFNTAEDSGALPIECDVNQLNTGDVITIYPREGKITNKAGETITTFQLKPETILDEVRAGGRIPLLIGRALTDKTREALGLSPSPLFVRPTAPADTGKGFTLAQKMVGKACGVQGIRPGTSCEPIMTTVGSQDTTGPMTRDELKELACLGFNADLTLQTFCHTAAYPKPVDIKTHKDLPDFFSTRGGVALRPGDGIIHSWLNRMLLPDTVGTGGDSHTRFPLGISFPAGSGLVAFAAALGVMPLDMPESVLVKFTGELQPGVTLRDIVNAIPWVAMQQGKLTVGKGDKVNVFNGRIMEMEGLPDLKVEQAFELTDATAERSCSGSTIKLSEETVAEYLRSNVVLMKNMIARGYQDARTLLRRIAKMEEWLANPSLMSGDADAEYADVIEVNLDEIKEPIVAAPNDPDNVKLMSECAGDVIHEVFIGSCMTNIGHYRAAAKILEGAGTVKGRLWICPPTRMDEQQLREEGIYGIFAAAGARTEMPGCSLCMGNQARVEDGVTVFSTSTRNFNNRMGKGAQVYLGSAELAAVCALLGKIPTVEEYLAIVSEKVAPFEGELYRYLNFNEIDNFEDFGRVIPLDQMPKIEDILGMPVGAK

purified protein = substrate: O=C(O)CC(O)(CC(=O)O)C(=O)O; assay: purified protein; conditions: Tris-HCl pH 7.7, 45 °C; reactivated holo-enzyme
[2] = substrate: O=C(O)CC(C(=O)O)C(O)C(=O)O; assay: cis-aconitate formation, A240; format: biochemical, Synechocystis sp. PCC 6803; conditions: Tris-HCl pH 8.0, 53 °C; reactivated holo-enzyme; DL-isocitrate used

Molecule	remaining activity at 5000 µM [1] [%]	also measured
N[C@@H](CC(=O)O)C(=O)O [L-aspartate]	84	–
O=C(O)CCC(=O)C(=O)O [2-OG]	72	–
SyAcnB (Synechocystis sp. PCC 6803 aconitase B) (Synechocystis sp. PCC 6803 substr. Kazusa) (protein, full-length, synthetic gene in pGEX6P-1 (BamHI-XhoI), GST tag (elution with glutathione, no cleavage described), E. coli DH5alpha) MLQAYRRHVADRQKLGIPPLPLNAQQTTELCELLKNPPEAEKEELMMLLRDRVPPGVDEAAYVKAGFLTAIAKGEVTCPLISGQGAVDLLGTMIGGYNVQSLIELLKSKDTNIASAAATALSKTLLVFDAFNDVLHLSDTNGYAKQVIDAWAEGAWFINKPEVPERITVTVFKVPGETNTDDLSPAPHATTRPDIPLHALAMLEAKMPEGLGTIAELKQKGHPVAYVGDVVGTGSSRKSAINSVLWHIGTDIPFVPNKRAGGYILGGKIAPIFFNTAEDSGALPIECDVNQLNTGDVITIYPREGKITNKAGETITTFQLKPETILDEVRAGGRIPLLIGRALTDKTREALGLSPSPLFVRPTAPADTGKGFTLAQKMVGKACGVQGIRPGTSCEPIMTTVGSQDTTGPMTRDELKELACLGFNADLTLQTFCHTAAYPKPVDIKTHKDLPDFFSTRGGVALRPGDGIIHSWLNRMLLPDTVGTGGDSHTRFPLGISFPAGSGLVAFAAALGVMPLDMPESVLVKFTGELQPGVTLRDIVNAIPWVAMQQGKLTVGKGDKVNVFNGRIMEMEGLPDLKVEQAFELTDATAERSCSGSTIKLSEETVAEYLRSNVVLMKNMIARGYQDARTLLRRIAKMEEWLANPSLMSGDADAEYADVIEVNLDEIKEPIVAAPNDPDNVKLMSECAGDVIHEVFIGSCMTNIGHYRAAAKILEGAGTVKGRLWICPPTRMDEQQLREEGIYGIFAAAGARTEMPGCSLCMGNQARVEDGVTVFSTSTRNFNNRMGKGAQVYLGSAELAAVCALLGKIPTVEEYLAIVSEKVAPFEGELYRYLNFNEIDNFEDFGRVIPLDQMPKIEDILGMPVGAK	–	Km (purified protein): 1130 ± 40 µM; kcat (purified protein): 9.12 ± 0.14 s⁻¹; Km [2]: 1540 ± 170 µM; kcat [2]: 16.67 ± 0.34 s⁻¹

The next lines start with results.

remaining activity at 5000 µM [1] [%]	Molecule	also measured
81	NC(=O)CC[C@H](N)C(=O)O [L-glutamine]	–
69	CC(=O)C(=O)O [pyruvate]	–
85	N[C@@H](CCC(=O)O)C(=O)O [L-glutamate]	–
